Source: patent US11800867B2, “Methods of repelling biting arthropods, reducing pathogen spread and treating arthropod infestation” (priority 2016, dated 2023)

Assays:
Assay in all cases: In vitro membrane feeder repellency assay, probing of treated collagen membranes (Example 2)
Assay type in all cases: in vivo
[1] = tested on: female Anopheles quadrimaculatus mosquitoes; details: for Percent repellency: 1% Nootkatone in ethanol, 25 μL on collagen membrane, twenty minutes, average ± SE, n = 5
Source text: (§1) A laboratory trial was required to evaluate the repellency of 1% Nootkatone against female Aedes aegypti, Culex quinquefasciatus, and Anopheles quadrimaculatus mosquitoes using an in vitro method.
(§2) Female adult laboratory reared Aedes aegypti, Culex quinquefasciatus, and Anopheles quadrimaculatus mosquitoes (susceptible) were obtained from Benzon Research in Carlisle, Pa. 250 mosquitoes were used per replicate (5 replicates per test, per species). Adult mosquitoes were 3-8 days old.
(§3) Nootkatone was diluted in ethanol and acetone (note that Nootkatone diluted in acetone was not tested against An. quadrimaculatus). A positive control consisting of 20% DEET in ethanol was prepared using stock solutions. Negative controls consisted of no treatment, and ethanol-only treatment.
(§4) The treatments were applied directly to prepared collagen membranes by pipetting 25 μL of the appropriate substance onto a membrane and spreading it evenly with the tip of the pipette.
(§5) Exposure container. A 30.5 cm×30.5 cm×30.5 cm rigid plastic frame supported by four, 4 cm high legs, with a sleeved entry on one side and a sliding door on the bottom.
(§6) Membrane feeder. Five wells (3 cm in diameter×8 mm in depth) in line on a hollow plastic block (6 cm wide×22 cm long×3 cm deep), which fits through the sliding door in the bottom of the exposure container. Hoses attached to each side of the block circulate heated water that is pumped from a water bath. The sliding door in the bottom of the exposure container covers and uncovers the wells in the membrane feeder, allowing mosquitoes to access the wells.
(§7) Test set-up. The membrane feeder was connected to a heated water bath, and warm water passed through the feeder via a circulating pump so that the wells were warmed to 89-95° F. Seventy-two (72) mg of ATP (disodium salt) were added to 26 mL of warmed citrated bovine blood, which was poured into the wells until they were completely full.
(§8) The collagen membranes were placed on vacuum greased wax paper for treatment. They were then treated as described above and left for five minutes to dry. After they dried, the membranes were placed over each of the wells (using vacuum grease as an adhesive), completely covering the blood.
(§9) Exposure to mosquitoes. The mosquitoes were released into the exposure container just prior to exposure to the membranes. The exposure container was then placed on the membrane feeder and the sliding door opened, allowing the mosquitoes to access the wells. The number of mosquitoes probing each membrane was recorded every two minutes for twenty minutes.
(§10) The above procedures were repeated until five replicates were completed. A new batch of 250 female mosquitoes and fresh blood were used for each replicate, and the wells were cleaned in between replicates. The position of the treatments was rotated for each replicate, so that each treatment was tested on each of the five wells.
(§11) Percent repellency was calculated for each replicate using the total number of probes with the following formula:
(§12) [formula] • where C=the total number of probes on the untreated well • and T=the total number of probes on the treated well
(§13) Average percent repellency and standard error were then calculated across all five replicates. Shapiro-Wilks tests were conducted to determine the normality of the data, based on total number of probes per replicate. Depending on normality, student t-tests (with concurrent F-tests for variance) or Mann-Whitney tests were then used to determine significance between the treatments.

[2] = tested on: female Aedes aegypti mosquitoes; details: for Percent repellency: 25 μL on collagen membrane, twenty minutes, average ± SE, n = 5
Source text: as §1, §2, §3, §4, §5, §6, §7, §8, §9, §10, §11, §12, §13

[3] = tested on: female Culex quinquefasciatus mosquitoes; details: for Percent repellency: 25 μL on collagen membrane, twenty minutes, average ± SE, n = 5
Source text: as §1, §2, §3, §4, §5, §6, §7, §8, §9, §10, §11, §12, §13

[4] = 1% Nootkatone diluted in ethanol and in acetone

In the case of `C=C(C)[C@@H]1CCC2=CC(=O)C[C@@H](C)[C@]2(C)C1` [Nootkatone, nootkatone], the Percent repellency [1] is reported as 90.3%, the Percent repellency ([1]; listed as Nootkatone (ethanol)) is reported as 90.3 ± 5.3% and the “Protection compared with ethanol alone (significance)” value ([1]; 1% nootkatone diluted in ethanol) is reported as “not found to be significantly different from ethanol alone”. The “Protection compared with untreated or ethanol alone (significance, α=0.05)” value [2, 4] was “significantly higher protection”, the “Protection level compared with 20% DEET (significance, α=0.05)” value [2, 4] was “not significantly different from 20% DEET” and the Percent repellency ([2]; 1% Nootkatone in acetone) was 91.5 ± 2.1%. The Percent repellency ([2]; 1% Nootkatone in ethanol) was 92.0 ± 3.4%, the “Protection compared with untreated or ethanol alone (significance, α=0.05)” value [3, 4] was “significantly higher protection” and the “Protection level compared with 20% DEET (significance, α=0.05)” value [3, 4] was “not significantly different from 20% DEET”. For the same compound, the Percent repellency ([3]; 1% Nootkatone in acetone) was 80.1 ± 10.0% and the Percent repellency ([3]; 1% Nootkatone in ethanol) was 83.8 ± 5.5%.
